Converted amounts (≈) assume the structure as drawn.
Assays:
[1] = biological target: T1, human soluble guanylate cyclase alpha 1 and beta 1 subunits (sGC) stably expressed in Chinese hamster ovary cells (Homo sapiens, UniProt Q02108+Q02153); test: sGC cellular activator assay: cGMP in CHO cells expressing human sGC, preincubated with ODQ; type: cell-based; details: 40 microM ODQ preincubation, 30 min at room temperature, presence or absence of 50% human serum not given, read-out: EC50 nM, Activity of Compounds in Cellular Assay
T1 construct: expressed in transfected cells; host or cells: Chinese hamster ovary cells, stably transfected
T1 sequence (Q02108 1-690 partner): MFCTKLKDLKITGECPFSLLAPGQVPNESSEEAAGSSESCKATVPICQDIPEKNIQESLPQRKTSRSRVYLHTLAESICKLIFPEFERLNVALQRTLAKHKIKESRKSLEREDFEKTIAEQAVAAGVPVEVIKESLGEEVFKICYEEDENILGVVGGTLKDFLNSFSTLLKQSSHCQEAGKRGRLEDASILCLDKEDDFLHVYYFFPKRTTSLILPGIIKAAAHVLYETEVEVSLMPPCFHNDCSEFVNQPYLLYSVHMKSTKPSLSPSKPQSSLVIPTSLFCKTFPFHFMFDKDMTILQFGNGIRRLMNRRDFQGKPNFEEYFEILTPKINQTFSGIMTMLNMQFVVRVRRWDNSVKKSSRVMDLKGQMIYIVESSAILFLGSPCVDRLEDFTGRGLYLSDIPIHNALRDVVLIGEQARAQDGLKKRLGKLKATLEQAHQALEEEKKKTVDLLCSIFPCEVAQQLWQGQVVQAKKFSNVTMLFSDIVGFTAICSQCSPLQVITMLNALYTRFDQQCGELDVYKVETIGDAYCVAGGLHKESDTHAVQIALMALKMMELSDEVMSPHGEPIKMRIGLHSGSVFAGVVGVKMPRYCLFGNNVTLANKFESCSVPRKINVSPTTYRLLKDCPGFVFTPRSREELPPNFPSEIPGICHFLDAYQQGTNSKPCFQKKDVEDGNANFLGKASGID
T1 sequence (Q02153 1-619): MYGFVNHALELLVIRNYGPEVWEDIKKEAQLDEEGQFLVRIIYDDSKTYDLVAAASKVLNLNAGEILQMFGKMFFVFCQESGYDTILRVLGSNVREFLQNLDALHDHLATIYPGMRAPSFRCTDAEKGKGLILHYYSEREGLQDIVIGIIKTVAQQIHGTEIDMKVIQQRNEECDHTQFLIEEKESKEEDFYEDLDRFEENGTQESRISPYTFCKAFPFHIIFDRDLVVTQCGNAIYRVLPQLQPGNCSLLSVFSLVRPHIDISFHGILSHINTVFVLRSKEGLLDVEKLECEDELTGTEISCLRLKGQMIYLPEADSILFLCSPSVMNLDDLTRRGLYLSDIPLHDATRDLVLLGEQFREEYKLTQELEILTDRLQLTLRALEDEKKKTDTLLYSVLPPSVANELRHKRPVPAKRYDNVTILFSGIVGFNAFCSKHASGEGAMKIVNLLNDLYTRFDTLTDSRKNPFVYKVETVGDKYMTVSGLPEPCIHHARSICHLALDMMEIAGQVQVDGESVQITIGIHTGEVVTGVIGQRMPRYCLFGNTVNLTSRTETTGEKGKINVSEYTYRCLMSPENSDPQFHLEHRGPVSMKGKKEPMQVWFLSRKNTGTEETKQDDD
Method in brief: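 EC50 values derive from HTRF cGMP measurement after test compounds act for thirty minutes at room temperature, with or without 50% human serum. Before dosing, the sGC-transfected CHO cells spend one hour with the inhibitor ODQ (40 microM) in IBMX- and 0.1% BSA-containing buffer.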

[2] = Assessment of solubility: HT solubility in pION buffer, UV spectrophotometry; details: kinetic from dmso stock
[3] = pH 6.8, aqueous buffer, Solubility (pH 6.8), pH 6.8
[4] = pION system solution buffer, pH 4.5, pH 4.5, aqueous buffer, Solubility (pH 4.5), pH 4.5 buffer, 16-19 h incubation, 1.0% DMSO
[5] = pION system solution buffer, pH 7.4, pH 7.4, aqueous buffer, Solubility (pH 7.4), pH 7.4 buffer, 16-19 h incubation, 1.0% DMSO

SMILES | EC50 [1] [nM] | solubility [2, 3] [µg/mL] | solubility [2, 4] [µg/mL] | solubility [2, 5] [µg/mL]
Cc1ccc(OCc2ccc(CN3CCN(C(=O)C4CC4)CC3)cc2C)c(-c2csc(N3C[C@H]4CC[C@@H](C3)[C@H]4C(=O)O)n2)c1 [Compound 228] | 39 | 0.42 (≈ 0.683 µM) | 6.1 (≈ 9.92 µM) | –
Cc1ccc(OCc2ccc(CN3CCOCC3)cc2C)c(-c2csc(N3C[C@H]4CC[C@@H](C3)[C@@]4(C)C(=O)O)n2)c1 [Compound 270, 8-methyl-3-{4-[5-methyl-2-(2-methyl-4-morpholin-4-ylmethyl-benzyloxy)-phenyl]-thiazol-2-yl}-3-aza-bicyclo[3.2.1]octane-8(syn)-carboxylic acid] | 96 | – | 17 (≈ 30.3 µM) | > 56
CO[C@H]1CCN(C(=O)c2ccc(COc3ccc(C)cc3-c3csc(N4C[C@H]5CC[C@@H](C4)[C@H]5C(=O)O)n3)c(C)c2)C1 [Compound 328] | 29 | 62 (≈ 108 µM) | < 0.1 | –
Cc1ccc(OCc2ccc(C(=O)N(C)Cc3nccn3C)cc2C)c(-c2csc(N3C[C@H]4CC[C@@H](C3)[C@H]4C(=O)O)n2)c1 [Compound 339] | 41 | 48 (≈ 80 µM) | 32 (≈ 53.4 µM) | –
Cc1ccc(OCc2ccc(C(=O)N3CCOCC3)cc2C)c(-c2csc(N3CC[C@@H](C(=O)O)[C@H]3C)n2)c1 [Compound 241] | 41 | 72 (≈ 134 µM) | 9.2 (≈ 17.2 µM) | –
Cc1ccc(OCc2ccc(C(C)N3CCOCC3)cc2C)c(-c2csc(N3CC4CCC(C3)C4C(=O)O)n2)c1 (centres unmarked) [Compound 276] | 45 | 1.9 (≈ 3.38 µM) | 32 (≈ 57 µM) | 41 (≈ 73 µM)
Cc1ccc(OCc2ccc(CN3CCOCC3)cc2C#N)c(-c2csc(N3C[C@H]4CC[C@@H](C3)[C@H]4C(=O)O)n2)c1 [Compound 264] | 21 | 12 (≈ 21.5 µM) | 21 (≈ 37.6 µM) | –
Cc1ccc(OCc2ccc(C(=O)N3CCCC3)cc2C)c(-c2csc(N3C[C@H]4CC[C@@H](C3)[C@H]4C(=O)O)n2)c1 [Compound 299] | 8.4 | 36 (≈ 66 µM) | 0.17 (≈ 0.312 µM) | –
Cc1ccc(OCc2ccc(C(=O)N(C)CCN(C)C)cc2C)c(-c2csc(N3C[C@H]4CC[C@@H](C3)[C@H]4C(=O)O)n2)c1 [Compound 305] | 140 | 67 (≈ 116 µM) | 62 (≈ 107 µM) | –
Cc1ccc(OCc2ccc(CN(C)[C@@H]3CCS(=O)(=O)C3)cc2C)c(-c2csc(N3C[C@H]4CC[C@@H](C3)[C@H]4C(=O)O)n2)c1 [Compound 351] | 10 | 1.3 (≈ 2.13 µM) | 0.21 (≈ 0.344 µM) | –
Cc1ccc(OCc2ccc(CN3CCOCC3)cc2C)c(-c2csc(N3CC4(CC4C(=O)O)C3)n2)c1 (centres unmarked) [Compound 257] | 540 | 45 (≈ 86.6 µM) | 56 (≈ 108 µM) | –
Cc1ccc(OCc2ccc(C(=O)N3CC[C@H](O)C3)cc2C)c(-c2csc(N3C[C@H]4CC[C@@H](C3)[C@H]4C(=O)O)n2)c1 [Compound 313] | 120 | 78 (≈ 139 µM) | 1.3 (≈ 2.31 µM) | –
Cc1ccc(OCc2ccc(CN3CCS(=O)(=O)CC3)cc2C)c(-c2csc(N3CC[C@]4(C(=O)O)C[C@@H]4C3)n2)c1 [Compound 222] | 110 | 3.3 (≈ 5.67 µM) | < 0.1 | 30 (≈ 51.6 µM)
Cc1ccc(OCc2ccc(C(=O)N(C)CCCO)cc2C)c(-c2csc(N3C[C@H]4CC[C@@H](C3)[C@H]4C(=O)O)n2)c1 [Compound 324] | 66 | 73 (≈ 129 µM) | 0.92 (≈ 1.63 µM) | –
Cc1ccc(OCc2ccc(C(=O)N(C)CC(C)(C)CO)cc2C)c(-c2csc(N3C[C@H]4CC[C@@H](C3)[C@H]4C(=O)O)n2)c1 [Compound 346] | 67 | 36 (≈ 60.8 µM) | 0.46 (≈ 0.777 µM) | > 54
Cc1ccc(OCc2ccc(C(=O)N3CCCC(C#N)C3)cc2C)c(-c2csc(N3C[C@H]4CC[C@@H](C3)[C@H]4C(=O)O)n2)c1 (some centres unmarked) [Compound 337] | 14 | 1.5 (≈ 2.57 µM) | < 0.1 | –
Cc1ccc(OCc2c(C)cc(C(=O)N3CCCCC3)cc2C)c(-c2csc(N3C[C@H]4CC[C@@H](C3)[C@H]4C(=O)O)n2)c1 [Compound 282] | 39 | 0.89 (≈ 1.55 µM) | < 0.1 | –
Cc1ccc(OCc2ccc(C(=O)N3CCCCC3)cc2C)c(-c2csc(N3CC(CC(=O)O)C3)n2)c1 [Compound 251] | 240 | 56 (≈ 108 µM) | 0.15 (≈ 0.289 µM) | –
CCc1cc(C(=O)N2CCCCC2)ccc1COc1ccc(C)cc1-c1csc(N2C[C@H]3CC[C@@H](C2)[C@H]3C(=O)O)n1 [Compound 287] | 6.2 | 21 (≈ 36.6 µM) | < 0.1 | –
Cc1ccc(OCc2ccc(C(=O)N3CCOCC3)cc2C)c(-c2csc(N3C[C@@H]4[C@H](C3)[C@@H]4C(=O)O)n2)c1 [Compound 247] | 720 | 70 (≈ 131 µM) | 46 (≈ 86.2 µM) | –
Cc1ccc(OCc2ccc(C(=O)N(C)Cc3ccnn3C)cc2C)c(-c2csc(N3C[C@H]4CC[C@@H](C3)[C@H]4C(=O)O)n2)c1 [Compound 318] | 66 | 34 (≈ 56.7 µM) | < 0.1 | > 53
Cc1ccc(OCc2ccc(C(=O)N3CCn4ncnc4C3)cc2C)c(-c2csc(N3C[C@H]4CC[C@@H](C3)[C@H]4C(=O)O)n2)c1 [Compound 327] | 14 | 71 (≈ 119 µM) | < 0.1 | –
Cc1ccc(OCc2ccc(CN3CCS(=O)(=O)CC3)cc2C)c(-c2csc(N3C[C@@H]4[C@H](C3)[C@@H]4C(=O)O)n2)c1 [Compound 244] | 180 | 65 (≈ 114 µM) | 2.6 (≈ 4.58 µM) | –
Cc1ccc(OCc2ccc(C(=O)N(C)CC(=O)N(C)C)cc2C)c(-c2csc(N3C[C@H]4CC[C@@H](C3)[C@H]4C(=O)O)n2)c1 [Compound 345] | 130 | 66 (≈ 112 µM) | 4 (≈ 6.77 µM) | > 58
Cc1ccc(OCc2ccc(C(=O)N(C)Cc3ncc[nH]3)cc2C)c(-c2csc(N3C[C@H]4CC[C@@H](C3)[C@H]4C(=O)O)n2)c1 [Compound 334] | 160 | 24 (≈ 41 µM) | 11 (≈ 18.8 µM) | –
Cc1ccc(OCc2c(C)cc(C(=O)N3CCN(C)C(=O)C3)cc2C)c(-c2csc(N3C[C@H]4CC[C@@H](C3)[C@H]4C(=O)O)n2)c1 [Compound 284] | 100 | 66 (≈ 109 µM) | 0.65 (≈ 1.08 µM) | –

From patent US8815857B2 (Boehringer Ingelheim International GmbH, priority 2011, dated 2014)
